Measurements published in patent US5698710A, “Tachykinins antagonists” (A. Menarini Industrie Farmaceutiche Riunite S.r.l., priority 1994, dated 1997).

Target: T1, NK1 receptors (Homo sapiens, UniProt P25103)
T1 construct: endogenous in cells; host or cells: IM9 cells (intact)
Test: [^3 H]SP Binding Assay in IM9 Cell Line (competition)
Conditions: for Ki: read-out: Affinity (pKi) in the IM9 binding test (converted); for Affinity (pKi) in the IM9 binding test: intact IM9 cells, 0.3 nM [^3 H]SP, 60' at room temperature, pH 7.5
Method: The evaluation of the antagonist acivity of NK1 receptors was performed with binding and functional tests.
The assay was carried out on intact cells as described by Payan et al. (1984). The cells were washed with buffer A at pH 7.5 containing (in mM) Tris-HCl 50, NaCl 150 and 0.02% BSA, thereafter were resuspended in a dosage buffer (buffer A added with protease inhibitors), concentration 1×10^7 cells/ml. […] The non-specific binding was calculated in the presence of […] of non-radioactive SP. The dosage mixture was poured in test tubes for microcentrifugation which were preadsorbed in a solution of BSA 0.5% for at least 3 hours. […] The affinity was measured as pKi.

T1 sequence (P25103 whole entry): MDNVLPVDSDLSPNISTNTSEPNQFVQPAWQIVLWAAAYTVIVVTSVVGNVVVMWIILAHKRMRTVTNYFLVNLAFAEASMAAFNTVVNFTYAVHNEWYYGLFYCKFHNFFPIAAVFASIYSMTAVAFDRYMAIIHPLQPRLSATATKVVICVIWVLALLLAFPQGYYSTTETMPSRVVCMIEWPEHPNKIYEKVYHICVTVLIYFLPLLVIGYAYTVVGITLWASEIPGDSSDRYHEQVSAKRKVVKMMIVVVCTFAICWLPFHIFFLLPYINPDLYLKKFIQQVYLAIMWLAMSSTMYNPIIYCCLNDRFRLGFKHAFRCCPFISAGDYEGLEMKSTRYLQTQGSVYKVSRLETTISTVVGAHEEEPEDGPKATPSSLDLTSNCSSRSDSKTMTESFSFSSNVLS

Ki [nM] | Affinity (pKi) in the IM9 binding test | Structure (SMILES)
5.01 | – | CN(Cc1ccccc1)C(=O)C(Cc1ccc2ccccc2c1)NC(=O)C1(NC(=O)c2ccc([N+](=O)[O-])cc2)CCCCC1 (centres unmarked) [N-[N(4-nitro-benzoyl)-1-amino-cyclohexancarbonyl]-2-(2-naphthyl)alanine-N-methyl-N-benzylamide]
– | 7.6 | COCCOCOC1CCC(NC(=O)c2c[nH]c3ccccc23)(C(=O)NC(Cc2ccccc2)C(=O)N(C)Cc2ccccc2)CC1 (stereo not drawn) [xxv, N-[N(1(H)indol-3-yl-carbonyl)-1-amino-cis-4-methoxyethoxymethoxyl-cyclohexancarbonyl]-phenylalanine-N-methyl-N-benzylamide]
6.31 | – | CN(Cc1ccccc1)C(=O)C(Cc1ccc2ccccc2c1)NC(=O)C1(NC(=O)c2c[nH]c3ccccc23)CCOCC1 (centres unmarked) [xxvii, N-[N(1(H)indol-3-yl-carbonyl)-4-amino-tetrahydropyran-4-carbonyl]-2-naphthylalanine-N-methyl-N-benzylamide]
15.8 | – | O=C(Cc1ccccc1)NC(Cc1ccc2ccccc2c1)NC(=O)C1(NC(=O)c2c[nH]c3ccccc23)CCCCC1 (centres unmarked) [ii, 1-[N(1(H)indol-3-yl-carbonyl)-1-amino-cyclohexancarbonyl]-amino-1[N-(2-phenylacetyl)amino]-2-(2-naphthyl)ethane]
15.8 | – | CN(Cc1ccccc1)C(=O)C(Cc1ccc2ccccc2c1)NC(=O)C1(N(C)C(=O)c2cn(C)c3ccccc23)CCCCC1 (centres unmarked) [xii, N-[N(1(methyl)indol-3-yl-carbonyl)-N-methyl-1-amino-cyclohexancarbonyl]-2 naphthylalanine-N-methyl-N-benzylamide]
15.8 | – | CN(Cc1ccccc1)C(=O)C(Cc1ccc2ccccc2c1)NC(=O)C1(NC(=O)c2ccccc2)CCCCC1 (centres unmarked) [N-[N(benzoyl)-1-amino-cyclohexancarbonyl]-2-(2-naphthyl)alanine-N-methyl-N-benzylamide]
– | 8.3 | CN(Cc1ccccc1)C(=O)C(Cc1ccc2ccccc2c1)NC(=O)C1(NC(=O)c2c[nH]c3ccccc23)CCC(O)CC1 (stereo not drawn) [xviii, N-[N(1(H)indol-3-yl-carbonyl)-1-amino-cis-4-hydrohy-cyclohexancarbonyl]-2-(2-naphthyl)alanine-N-methyl-N-benzylamide]
12.6 | – | CN(C(=O)Cc1ccccc1)C(Cc1ccc2ccccc2c1)NC(=O)C1(NC(=O)c2c[nH]c3ccccc23)CCNCC1 (centres unmarked) [xxviii, 1-N-[N(1(H)indol-3-yl-carbonyl)-4-amino-piperidin-4-carbonyl]-amino-1-[N(methyl)-N-(2-phenylacetyl)]amino-2-(2-naphtyl)ethane]
44.7 | – | CN(Cc1ccccc1)C(=O)C(Cc1ccc2ccccc2c1)NC(=O)C1(NC(=O)c2cc3ccccc3o2)CCCCC1 (centres unmarked) [N-[N(benzofuran-2-yl-carbonyl)-1-aminocyclohexancarbonyl]-2-(2-naphthyl)alanine-N-methyl-N-benzylamide]

The remaining lines, values behind:

Structure (SMILES) | Ki [nM] | Affinity (pKi) in the IM9 binding test
CN(Cc1ccccc1)C(=O)C(Cc1ccc2ccccc2c1)NC(=O)C1(NC(=O)c2cn(C)c3ccccc23)CCCCC1 (centres unmarked) [N-[N(1(methyl)indol-3-yl-carbonyl)-1-amino-cyclohexancarbonyl]-2-)2-naphthyl)alanine-N-methyl-N-benzylamide] | 15.8 | –
COc1ccc(CC(NC(=O)C2(NC(=O)c3c[nH]c4ccccc34)CCCC2)C(=O)N(C)Cc2ccccc2)cc1 (centres unmarked) [N-[N(1(H)indol-3-yl-carbonyl)-1-amino-cyclopentancarbonyl]-4-methyoxyphenylalanine-N-methyl-N-benzylamide] | 794 | –
CN(Cc1ccccc1)C(=O)C(Cc1ccccc1)NC(=O)C1(NC(=O)c2c[nH]c3ccccc23)CCCCC1 (centres unmarked) [N-[N(1(H)indol-3-yl-carbonyl)-1-amino-cyclohexancarbonyl]-phenylalanine-N-methyl-N-benzylamide] | 178 | –
COc1ccc(C(=O)NC2(C(=O)NC(Cc3ccc4ccccc4c3)C(=O)N(C)Cc3ccccc3)CCCCC2)cc1 (centres unmarked) [N-[N(4-methoxy-benzoyl)-1-amino-cyclohexancarbonyl]-2-(2-naphthyl)alanine-N-methyl-N-benzylamide] | 20 | –
CN(Cc1ccccc1)C(=O)C(Cc1ccc2ccccc2c1)NC(=O)C1(NC(=O)c2ccc(Cl)c(Cl)c2)CCCCC1 (centres unmarked) [N-[N(3,4-dichloro-benzoyl)-1-amino-cyclohexancarbonyl]-2-(2-naphthyl)alanine-N-methyl-N-benzylamide] | 7.94 | –
CN(Cc1ccccc1)C(=O)C(Cc1ccccc1)NC(=O)C1(NC(=O)c2c[nH]c3ccccc23)CCCC1 (centres unmarked) [N-[N(1(H)indol-3-yl-carbonyl)-1-amino-cyclopentancarbonyl]-phenylalanine-N-methyl-N-benzylamide] | 158 | –
CN(Cc1ccccc1)C(=O)C(Cc1ccc2ccccc2c1)NC(=O)C1(NC(=O)c2ccc(Cl)cc2)CCCCC1 (centres unmarked) [N-[N(4-chloro-benzoyl)-1-amino-cyclohexancarbonyl]-2-(2-naphthyl)alanine-N-methyl-N-benzylamide] | 10 | –
CN(Cc1ccccc1)C(=O)[C@H](Cc1ccc2ccccc2c1)NC(=O)C1(NC(=O)c2c[nH]c3ccccc23)CCCCC1 [Example, N^α [N-(1(H)indol-3-yl-carbonyl)-1-amino-cyclohexan-carbonyl]-L-2-naphthylalanine-N-methyl-N-benzylamide] | 1 | –
CN(Cc1ccccc1)C(=O)C(Cc1ccc2ccccc2c1)NC(=O)C1(NC(=O)c2c[nH]c3ccccc23)CCCC1 (centres unmarked) [N-[N(1(H)indol-3-yl-carbonyl)-1-amino-cyclopentancarbonyl]-2-(2-naphthyl)alanine-N-methyl-N-benzylamide] | 2.51 | –
CN(Cc1ccccc1)C(=O)C(Cc1ccc(O)cc1)NC(=O)C1(NC(=O)c2c[nH]c3ccccc23)CCCCC1 (centres unmarked) [N-[N(1(H)indol-3-yl-carbonyl)-1-amino-cyclohexancarbonyl]-tyrosine-N-methyl-N-benzylamide] | 20 | –
COc1ccc(CC(NC(=O)C2(NC(=O)c3c[nH]c4ccccc34)CCCCC2)C(=O)N(C)Cc2ccccc2)cc1 (centres unmarked) [N-[N(1(H)indol-3-yl-carbonyl)-1-amino-cyclohexancarbonyl]-4-methoxyphenylalanine-N-methyl-N-benzylamide] | 3.98 | –
CN(Cc1ccccc1)C(=O)C(Cc1ccc2ccccc2c1)NC(=O)C1(NC(=O)c2c[nH]c3ccccc23)CCNCC1 (centres unmarked) [N-[N(1(H)indol-3-yl-carbonyl)-4-amino-piperidin-4-carbonyl]-2-(2-naphthyl)alanine-N-methyl-N-benzylamide] | 12.6 | –
CN(Cc1ccccc1)C(=O)C(Cc1ccc([N+](=O)[O-])cc1)NC(=O)C1(NC(=O)c2c[nH]c3ccccc23)CCCCC1 (centres unmarked) [N-[N(1(H)indol-3-yl-carbonyl)-1-amino-cyclohexancarbonyl]-4-nitrophenylalanine-N-methyl-N-benzylamide] | 20 | –
CN(Cc1ccccc1)C(=O)C(Cc1ccc2ccccc2c1)NC(=O)C1(NC(=O)c2c[nH]c3ccccc23)CCSCC1 (centres unmarked) [N-[N(1(H)indol-3-yl-carbonyl)-4-amino-tetrahydrothiopyran-4-carbonyl]-2-(2-naphthyl)alanine-N-methyl-N-benzylamide] | 5.01 | –
